Like-named read-outs stand apart in the source and are kept apart here.
What was measured:
HIV-1 (IIIB) = assay: microbe, parasite or virus in culture; assay type: cell-based
in vitro = conditions: human; for CC50 at 5 days: uninfected MT-4 cells
[1] = Human immunodeficiency virus 1, IIIB, MT4, 120 h, read-out: MT4 EC50 (nM)
[2] = Human immunodeficiency virus 1, MT4, 120 h, HIV-1 (IIIB) replication in MT-4 cells, 5 days incubation, Cell Titer Glo, read-out: MT4 EC50

Compound	EC50 (HIV-1 (IIIB); [1]) [nM]	CC50 (in vitro) [µM]	EC50 (HIV-1 (IIIB); [2]) [nM]	CC50 at 5 days (in vitro) [µM]
CC1=NO[C@@]2(CC[C@H](C)N3C[C@H]2n2cc(C(=O)NCc4ccc(F)cc4F)c(=O)c(OC(=O)N(C)c4ncccc4CN(CCC(F)(F)F)C(=O)OCOP(=O)(O)O)c2C3=O)C1 [Compound 82, (3′S,5S,7′R)-10′-((2,4-difluorobenzyl)carbamoyl)-3,3′-dimethyl-1′,11′-dioxo-1′,4′,5′,11′-tetrahydro-3′H,4H,7′H-spiro[isoxazole-5,6′-[2,7]methanopyrido[1,2-a][1,4]diazonin]-12′-yl methyl(3-(((((phosphonooxy)methoxy)carbonyl)(3,3,3-trifluoropropyl)amino)methyl)pyridin-2-yl)carbamate]	2.17	8.52		
CC1=NO[C@@]2(CC[C@H](C)N3C[C@H]2n2cc(C(=O)NCc4ccc(F)cc4F)c(=O)c(OCOC(=O)O[C@@H]4CCCC[C@@H]4OP(=O)(O)O)c2C3=O)C1 [Compound 50, (((3′S,5S,7′R)-10′-((2,4-difluorobenzyl)carbamoyl)-3,3′-dimethyl-1′,11′-dioxo-1′,4′,5′,11′-tetrahydro-3′H,4H,7′H-spiro[isoxazole-5,6′-[2,7]methanopyrido[1,2-a][1,4]diazonin]-12′-yl)oxy)methyl ((1R,2S)-2-(phosphonooxy)cyclohexyl) carbonate]			1.69	21.6
COCCN(Cc1cccnc1N(C)C(=O)Oc1c2n(cc(C(=O)NCc3ccc(F)cc3F)c1=O)[C@@H]1CN(C2=O)[C@@H](C)CC[C@]12CC(C)=NO2)C(=O)OCOP(=O)(O)O [Compound 83, (3′S,5S,7′R)-10′-((2,4-difluorobenzyl)carbamoyl)-3,3′-dimethyl-1′,11′-dioxo-1′,4′,5′,11′-tetrahydro-3′H,4H,7′H-spiro[isoxazole-5,6′-[2,7]methanopyrido[1,2-a][1,4]diazonin]-12′-yl (3-(((2-methoxyethyl)(((phosphonooxy)methoxy)carbonyl)amino)methyl)pyridin-2-yl)(methyl)carbamate]	1.36	13.2		
CCCCCCCCCCCCCC(=O)NCc1ccccc1C(=O)Oc1c2n(cc(C(=O)NCc3ccc(F)cc3F)c1=O)[C@@H]1CN(C2=O)[C@@H](C)CC[C@]12CC(C)=NO2 [Compound 102, (3′S,5S,7′R)-10′-((2,4-difluorobenzyl)carbamoyl)-3,3′-dimethyl-1′,11′-dioxo-1′,4′,5′,11′-tetrahydro-3′H,4H,7′H-spiro[isoxazole-5,6′-[2,7]methanopyrido[1,2-a][1,4]diazonin]-12′-yl 2-(tetradecanamidomethyl)benzoate]				31.8
CC1=NO[C@@]2(CC[C@H](C)N3C[C@H]2n2cc(C(=O)NCc4ccc(F)cc4F)c(=O)c(OCOC(=O)CC(C)(C)c4c(CC(=O)N[C@@H](CCC(=O)O)C(=O)O)cc(C)cc4OP(=O)(O)O)c2C3=O)C1 [Compound 42, (2-(2-(4-((((3′S,5S,7′R)-10′-((2,4-difluorobenzyl)carbamoyl)-3,3′-dimethyl-1′,11′-dioxo-1′,4′,5′,11′-tetrahydro-3′H,4H,7′H-spiro[isoxazole-5,6′-[2,7]methanopyrido[1,2-a][1,4]diazonin]-12′-yl)oxy)methoxy)-2-methyl-4-oxobutan-2-yl)-5-methyl-3-(phosphonooxy)phenyl)acetyl)-L-glutamic acid]	1.9	15.7		
CC1=NO[C@@]2(CC[C@H](C)N3C[C@H]2n2cc(C(=O)NCc4ccc(F)cc4F)c(=O)c(OCOC(=O)OC[C@@H]4CCCC[C@@H]4OP(=O)(O)O)c2C3=O)C1 [Compound 52, (((3′S,5S,7′R)-10′-((2,4-difluorobenzyl)carbamoyl)-3,3′-dimethyl-1′,11′-dioxo-1′,4′,5′,11′-tetrahydro-3′H,4H,7′H-spiro[isoxazole-5,6′-[2,7]methanopyrido[1,2-a][1,4]diazonin]-12′-yl)oxy)methyl (((1S,2S)-2-(phosphonooxy)cyclohexyl)methyl) carbonate]			1.47	13
COC1=NO[C@@]2(CC[C@H](C)N3C[C@H]2n2cc(C(=O)NCc4ccc(F)cc4F)c(=O)c(OCc4oc(=O)oc4C)c2C3=O)C1 [Compound 103, (3′S,5S,7′R)—N-(2,4-difluorobenzyl)-3-methoxy-3′-methyl-12′-((5-methyl-2-oxo-1,3-dioxol-4-yl)methoxy)-1′,11′-dioxo-1′,4′,5′,11′-tetrahydro-3′H,4H,7′H-spiro[isoxazole-5,6′-[2,7]methanopyrido[1,2-a][1,4]diazonine]-10′-carboxamide]			1.91	18.9
CC1=NO[C@@]2(CC[C@H](C)N3C[C@H]2n2cc(C(=O)NCc4ccc(F)cc4F)c(=O)c(OCOC(=O)N(C)c4ncccc4CN(CC(=O)N[C@@H](CC(=O)O)C(=O)O)C(=O)OCOP(=O)(O)O)c2C3=O)C1 [Compound 36, N-((2-((((((3′S,5S,7′R)-10′-((2,4-difluorobenzyl)carbamoyl)-3,3′-dimethyl-1′,11′-dioxo-1′,4′,5′,11′-tetrahydro-3′H,4H,7′H-spiro[isoxazole-5,6′-[2,7]methanopyrido[1,2-a][1,4]diazonin]-12′-yl)oxy)methoxy)carbonyl)(methyl)amino)pyridin-3-yl)methyl)-N-(((phosphonooxy)methoxy)carbonyl)glycyl-L-aspartic acid]			3.09	22
COC1=NO[C@@]2(CC[C@H](C)N3C[C@H]2n2cc(C(=O)NCc4ccc(F)cc4F)c(=O)c(OCOC(=O)N(C)C[C@@H]4CCCN4C(=O)OCOP(=O)(O)O)c2C3=O)C1 [Compound 16, (phosphonooxy)methyl (2S)-2-(((((((3′S,5S,7′R)-10′-((2,4-difluorobenzyl)carbamoyl)-3-methoxy-3′-methyl-1′,11′-dioxo-1′,4′,5′,11′-tetrahydro-3′H,4H,7′H-spiro[isoxazole-5,6′-[2,7]methanopyrido[1,2-a][1,4]diazonin]-12′-yl)oxy)methoxy)carbonyl)(methyl)amino)methyl)pyrrolidine-1-carboxylate]			2.93	16
COC1=NO[C@@]2(CC[C@H](C)N3C[C@H]2n2cc(C(=O)NCc4ccc(F)cc4F)c(=O)c(OCOC(=O)CC(C)(C)c4c(CC(=O)O)cc(C)cc4OP(=O)(O)O)c2C3=O)C1 [Compound 21, 2-(2-(4-((((3′S,5S,7′R)-10′-((2,4-difluorobenzyl)carbamoyl)-3-methoxy-3′-methyl-1′,11′-dioxo-1′,4′,5′,11′-tetrahydro-3′H,4H,7′H-spiro[isoxazole-5,6′-[2,7]methanopyrido[1,2-a][1,4]diazonin]-12′-yl)oxy)methoxy)-2-methyl-4-oxobutan-2-yl)-5-methyl-3-(phosphonooxy)phenyl)acetic acid]	2.54	12.6		
COC1=NO[C@@]2(CC[C@H](C)N3C[C@H]2n2cc(C(=O)NCc4ccc(F)cc4F)c(=O)c(OC(=O)Cc4ccc(OP(=O)(O)O)cc4)c2C3=O)C1 [Compound 29, (3′S,5S,7′R)-10′-((2,4-difluorobenzyl)carbamoyl)-3-methoxy-3′-methyl-1′,11′-dioxo-1′,4′,5′,11′-tetrahydro-3′H,4H,7′H-spiro[isoxazole-5,6′-[2,7]methanopyrido[1,2-a][1,4]diazonin]-12′-yl 2-(4-(phosphonooxy)phenyl)acetate]	2.01	27.8		
CCCCCCCCCCCCCC(=O)NCc1ccccc1C(=O)Oc1c2n(cc(C(=O)NCc3ccc(F)cc3F)c1=O)[C@@H]1CN(C2=O)[C@@H](C)CC[C@]12CC(OC)=NO2 [Compound 101, (3′S,5S,7′R)-10′-((2,4-difluorobenzyl)carbamoyl)-3-methoxy-3′-methyl-1′,11′-dioxo-1′,4′,5′,11′-tetrahydro-3′H,4H,7′H-spiro[isoxazole-5,6′-[2,7]methanopyrido[1,2-a][1,4]diazonin]-12′-yl 2-(tetradecanamidomethyl)benzoate]				≥ 50
COC1=NO[C@@]2(CC[C@H](C)N3C[C@H]2n2cc(C(=O)NCc4ccc(F)cc4F)c(=O)c(OCOP(=O)(O)OCc4ccccc4)c2C3=O)C1 [Compound 18, benzyl ((((3′S,5S,7′R)-10′-((2,4-difluorobenzyl)carbamoyl)-3-methoxy-3′-methyl-1′,11′-dioxo-1′,4′,5′,11′-tetrahydro-3′H,4H,7′H-spiro[isoxazole-5,6′-[2,7]methanopyrido[1,2-a][1,4]diazonin]-12′-yl)oxy)methyl) hydrogen phosphate]			12.3	≥ 50
CC1=NO[C@@]2(CC[C@H](C)N3C[C@H]2n2cc(C(=O)NCc4ccc(F)cc4F)c(=O)c(OCOC(=O)O[C@H]4CCCCC[C@@H]4OP(=O)(O)O)c2C3=O)C1 [Compound 77, (((3′S,5S,7′R)-10′-((2,4-difluorobenzyl)carbamoyl)-3,3′-dimethyl-1′,11′-dioxo-1′,4′,5′,11′-tetrahydro-3′H,4H,7′H-spiro[isoxazole-5,6′-[2,7]methanopyrido[1,2-a][1,4]diazonin]-12′-yl)oxy)methyl ((1S,2S)-2-(phosphonooxy)cycloheptyl) carbonate]			2.05	19.4
CC1=NO[C@@]2(CC[C@H](C)N3C[C@H]2n2cc(C(=O)NCc4ccc(F)cc4F)c(=O)c(OCOC(=O)CC(C)(C)c4c(CC(=O)NCP(=O)(O)O)cc(C)cc4OP(=O)(O)O)c2C3=O)C1 [Compound 81, ((2-(2-(4-((((3′S,5S,7′R)-10′-((2,4-difluorobenzyl)carbamoyl)-3,3′-dimethyl-1′,11′-dioxo-1′,4′,5′,11′-tetrahydro-3′H,4H,7′H-spiro[isoxazole-5,6′-[2,7]methanopyrido[1,2-al][1,4]diazonin]-12′-yl)oxy)methoxy)-2-methyl-4-oxobutan-2-yl)-5-methyl-3-(phosphonooxy)phenyl)acetamido)methyl)phosphonic acid]	2.09	14.4		

From patent publication US20250127801A1, “BRIDGED TRICYCLIC CARBAMOYLPYRIDONE COMPOUNDS AND USES THEREOF” (priority 2023, published 2025)
